# Measured values taken from PubChem BioAssay AID1417 (Emory University Molecular Libraries Screening Center, 2008).
# pIC50: −log10 of the molar value.
# Biological target: Induced myeloid leukemia cell differentiation protein Mcl-1 (Homo sapiens) (UniProt Q07820)
# Experiment: Mcl-1 Noxa peptide disruption concentration-response – biochemical, TR-FRET, dose response (AID 1417)
# Details: Mcl-1/Noxa peptide interaction, cell-free TR-FRET (terbium/rhodamine), 2 h; measured here: absolute IC50
# Sequence of Induced myeloid leukemia cell differentiation protein Mcl-1 (Homo sapiens) (Q07820 whole entry, looked up): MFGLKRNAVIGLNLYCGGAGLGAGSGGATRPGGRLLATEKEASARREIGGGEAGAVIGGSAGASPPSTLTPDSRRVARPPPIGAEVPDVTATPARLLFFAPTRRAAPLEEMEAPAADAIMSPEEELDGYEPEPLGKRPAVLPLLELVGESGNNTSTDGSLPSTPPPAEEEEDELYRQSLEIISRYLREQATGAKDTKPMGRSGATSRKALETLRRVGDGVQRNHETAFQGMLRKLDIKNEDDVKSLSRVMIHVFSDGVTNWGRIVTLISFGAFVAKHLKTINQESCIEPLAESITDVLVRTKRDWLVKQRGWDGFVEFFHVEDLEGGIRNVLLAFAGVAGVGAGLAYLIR
row,Compound,pIC50
1,O=C(CSc1nc2ccccc2s1)Nc1cc(S(=O)(=O)N2CCOCC2)ccc1O,6.14
2,CCN(CC)C(=O)CC(c1cc(OC)c(OC)c(OC)c1)c1c(OC)cc(OC)c2c(-c3ccccc3)cc(=O)oc12 (stereo not given),5.39
3,FC(F)(F)C1=CC(c2ccccc2)=NCCN1,< 4.27
4,Cc1ccc(NC(=O)CSc2nnc(-c3ccco3)c(-c3ccco3)n2)cc1,5.48
5,CCOC(=O)c1sc2nc3c(SCCC(=O)O)cc(C(=O)c4cc(OC)ccc4O)cn3c(=O)c2c1C,6.02
6,O=[N+]([O-])c1cc(Br)c(O)c(/C=N/Nc2nc3ccccc3s2)c1,> 6.40
7,Cn1c(SCC(=O)Nc2ccc3nc(SCC(=O)N4CCCC4)sc3c2)nnc1-c1ccccc1,5.65
8,CC(C)N1CCc2c(sc(NC(=O)c3cc4cc([N+](=O)[O-])ccc4s3)c2C(N)=O)C1,5.40
9,COc1ccc(N2CCC(CNC(=O)Nc3ccc(OC)cc3OC)C2)cc1 (stereo not given),5.91
10,O=c1c2c3nc4ccccc4nc3n(Cc3ccccc3)c2ncn1Cc1ccco1,< 4.27
11,CCN(/N=C/c1ccc(N(C)C)cc1)c1nc2ccccc2[nH]1,5.69
12,O=C(CNC(=O)C(c1ccccc1)c1ccccc1)N/N=C/c1cccnc1,< 4.27
13,CC(C)Oc1ccc(C(=O)Nc2ccc(N(C)C)cc2)cc1,< 4.27
14,CN(C)S(=O)(=O)c1cccc(NC(=S)N/N=C/c2ccc(O)c(O)c2O)c1,> 6.40
15,CC1CCN(c2ccc(NC(=O)Cc3ccccc3)cc2)CC1,< 4.27
16,Cc1ccc(O)c(NC2=C(Cl)C(=O)N(Cc3ccccc3)C2=O)c1,< 4.27
17,O=C1NC(=S)N(c2ccc(F)cc2)C(=O)/C1=C\c1ccoc1,> 6.40
18,CN(C)c1ccc(NS(=O)(=O)c2cccc(Cl)c2)cc1,< 4.27
19,CC1=NN(c2cccc(C(=O)O)c2)C(=O)/C1=C\C=C\c1ccco1,5.35
20,CC(C)(C)C1CCc2c(C(=O)NNC(=O)CCC(=O)O)csc2C1 (stereo not given),< 4.27
21,Cc1ccc(-n2cccc2/C=C2\C(=N)N3N=C(c4ccco4)SC3=NC2=O)cc1,5.81
22,COc1ccc(N2Cc3cccc(C(=O)N4CCN(C(=O)c5ccco5)CC4)c3C2=O)cc1,5.75
23,COc1ccc(C(CC(=O)N2CCCC2)c2c(OC)cc(OC)c3c(-c4ccccc4)cc(=O)oc23)cc1 (stereo not given),5.41
24,O=C(N/N=C/c1ccc(O)c(O)c1O)/C(=C/c1ccc([N+](=O)[O-])cc1)NC(=O)c1ccccc1,> 6.40
25,O=[N+]([O-])c1ccccc1/C=C/C=N/n1c(-c2ccccc2)n[nH]c1=S,< 4.27

row,Compound,pIC50
1,COc1cc(-c2ccc(Nc3ccccc3C(=O)O)c(OC)c2)ccc1Nc1ccccc1C(=O)O,> 6.40
2,COc1cc(/C=N/NC(=O)c2ccc(CN3C(=O)c4cccc5cccc3c45)cc2)cc(OC)c1O,5.46
3,C=C(C)C(=O)Nc1cccc(C2=NOC3(C2)C[C@@H](C(N)=O)N(C(=O)c2cc([N+](=O)[O-])cc([N+](=O)[O-])c2C)C3)c1 (stereo not given in full),5.39
4,O=C(/C=C/c1cccs1)N1CCN(c2ccc(O)cc2)CC1,5.44
5,O=c1oc2ccccc2c(O)c1/C=C1\C=Nc2ccccc21,5.32
6,CC1CC1C(=O)OCC(=O)Nc1ccc2[nH]c(=O)[nH]c2c1 (stereo not given),5.36
7,O=C(N/N=C/c1ccc(O)c(O)c1)c1ccc(CSc2cccc3cccnc23)cc1,5.51
8,O=C(N/N=C/c1ccc(O)cc1)c1cccc(N/N=C/c2ccc(O)cc2)c1,5.69
9,Cc1cc(C(=O)N/N=C/c2cc(N=Nc3ccccc3)ccc2O)n[nH]1,4.96
10,CCN(c1ccc(NC(=O)COC(=O)/C=C/c2cccs2)cc1)C(C)C,5.42
11,O=C1c2ccc([N+](=O)[O-])cc2NC(c2ccco2)N1/N=C/c1ccco1 (stereo not given),< 4.27
12,Cc1cc(N(CCO)CCO)ccc1C(c1ccc(N(CCO)CCO)cc1C)c1ccccc1Cl,5.95
13,O=C(Nc1ccc(N2CCOCC2)cc1)Nc1ccc2nc(-c3ccco3)c(-c3ccco3)nc2c1,> 6.40
14,COc1cc(/C=C(\C#N)c2nc3ccc(C)cc3[nH]2)cc([N+](=O)[O-])c1O,5.46
15,COc1cc(/C=C(\C#N)c2nc3ccccc3s2)cc([N+](=O)[O-])c1O,5.47
16,NC1=NC(=O)/C(=C/c2cn(CCC(=O)O)nc2-c2ccc(Cl)cc2)S1,5.23
17,Cc1cccc2cc(/C=N/NC(=O)c3ccccc3O)c(Cl)nc12,5.22
18,COc1ccccc1NC1=C(NC(C)=O)C(=O)c2ccccc2C1=O,5.61
19,CCS(=O)(=O)C1=NN2C(=N)/C(=C\c3ccc(SCc4ccco4)o3)C(=O)N=C2S1,5.84
20,COc1ccc(NC(C)C(=O)Nc2ccc(C#N)cc2)cc1Cl (stereo not given),< 4.27
21,COc1ccc2nc(NC(=O)Nc3cccc4ccccc34)sc2c1,< 4.27
22,O=C1NC(=S)/C(=C\c2ccc(-c3ccccc3Cl)o2)S1,5.67
23,CN(C)c1ccc(C(CNC(=O)c2ccc(C#N)cc2)c2c[nH]c3ccccc23)cc1 (stereo not given),< 4.27
24,O=C(COC(=O)c1ccc2c(c1)C(=O)N(Cc1ccncc1)C2=O)Nc1ccccc1[N+](=O)[O-],5.60
25,O=C1C(=Cc2ccc(Br)o2)C(=O)c2ccccc21,> 6.40

row,Compound,pIC50
1,O=[N+]([O-])c1cc(S(=O)(=O)c2ccc(O)c([N+](=O)[O-])c2)ccc1O,6.07
2,COc1cc(/C=N\Nc2nc(-c3cccs3)c(NC(C)=O)s2)ccc1O,> 6.40
3,COc1ccc(-n2c(N)c(-c3nc4ccccc4n3C)sc2=S)cc1,< 4.27
4,O=[N+]([O-])C(=c1ccc2c(c1)N1C3=C(CCCC3)CC3CCCCC31N=2)[N+](=O)[O-] (stereo not given),> 6.40
5,O=C1N=c2ccccc2=C1c1c(O)n(-c2cccc(F)c2)[nH]c1=O,> 6.40
6,CCOC(=O)c1c(NC(=O)N/N=C/c2ccc(O)c(OC)c2)sc(C(C)=O)c1C,5.80
7,O=C(Cn1nc(C(=O)O)c2ccccc2c1=O)Nc1ccc2c(c1)C(=O)c1ccccc1C2=O,5.34
8,CC(C)(C)C1=CC=C(C(C)(C)C)C(=O)C1=O,> 6.40
9,O=C(O)c1ccc(-n2cccc2/C=C2/NC(=O)N(c3ccccc3)C2=O)cc1,5.48
10,O=C(O)c1cccc(-c2ccc(/C=c3/sc4nc5ccccc5n4c3=O)o2)c1,5.99
11,COc1cccc(C(Nc2ccccn2)c2oc(CO)cc(=O)c2O)c1 (stereo not given),> 6.40
12,COc1ccc(Cc2nnc(NC(=O)Cc3cccs3)s2)cc1OC,5.98
13,O=C(O)CCc1nc(-c2cccs2)no1,< 4.27
14,CCOC(=O)c1c(C)oc2c1c(CN1CCN(C(=O)OCC)CC1)c(O)c1ccccc12,> 6.40
15,N#C/C(=C/c1ccc(OCc2ccc(C(=O)O)cc2)c(Br)c1)c1cccc(F)c1,> 6.40
16,CCOC(=O)N1CCN(c2c(NCCCN(CC)Cc3ccccc3)c(=O)c2=O)CC1,5.39
17,CCC(=O)Oc1ccc2c(=O)c(-c3ccc4ccccc4n3)c(CC)oc2c1C,< 4.27
18,O=C(Nc1ccc(Nc2ccncc2)cc1)c1ccc(Nc2ccnc3ccc([N+](=O)[O-])cc23)cc1[N+](=O)[O-],5.51
19,NS(=O)(=O)c1ccc(-c2ccc(/C=C3\SC(=S)N(C4CCS(=O)(=O)C4)C3=O)o2)cc1 (stereo not given),5.59
20,Cc1nc(C)c(C(=O)Nc2nc3c(C)cccc3s2)o1,5.58
21,CCNc1ccc(Br)cc(C(=O)/C=C/c2ccc(Cl)cc2Cl)c1=O,5.38
22,O=C1CCCC2=C1C(c1ccco1)Nc1ccc3ccccc3c12 (stereo not given),5.65
23,CCCCOC(=O)Nc1ccc(N(C)C)cc1,4.28
24,CCc1ccc(-n2cccc2/C=C2/C(=N)N3C(=NC2=O)SN=C3S(C)(=O)=O)cc1,5.35
25,Cc1cccc(NC(=O)CN2C(=O)N/C(=C/c3ccc(C)o3)C2=O)c1,< 4.27
